Test results published in publication PMC11044151, “Development of Half-Sandwich Ru, Os, Rh, and Ir Complexes Bearing the Pyridine-2-ylmethanimine Bidentate Ligand Derived from 7-Chloroquinazolin-4(3H)-one with Enhanced Antiproliferative Activity” (ACS Omega, 2024).

Assays:
SW620Mito = assay: Neutral red uptake antiproliferative assay, MDR line SW620Mito; type: cell-based, human; conditions: for IC50: exposure time 72 h, n = 3, ABCG2-overexpressing MDR line; for activity factor IC50(1)/IC50(3a–4d), SW620Mito: vs corresponding amine (R)-1 or (S)-1, 72 h
Source text: (§1) Next, we evaluated the cytotoxicity of the synthesized complexes toward the panel of six multidrug-resistant (MDR) cell lines derived from SW620 and characterized by the overexpression of various ABC proteins, namely, ABCG2 (SW620C and SW620Mito), ABCC1 (SW620M and SW620E), and ABCB1 (SW620D, SW620E, and SW620V) (Table 3, Figures S29 and S32). […] The activity of the complexes derived from the ligand (S)-2 is also considerably higher than that of the compounds containing the ligand (R)-2. The cytotoxicity of both rhodium 4c and iridium 4d complexes is higher than that of amine (S)-1. In the case of 4c, the increase in cytotoxicity is low, with the highest value of 3.7-fold for the SW620Mito line. […] Compound 4d also exerts a 2.1- and 2.6-fold higher cytotoxicity than […] against the SW620C and SW620D lines.
(§2) For this purpose, neutral red uptake assay was performed. […] The results were presented as a percentage of control.

A549 = assay: Neutral red uptake antiproliferative assay, A549; conditions: for IC50: read-out: IC50 A549, exposure time 72 h, n = 3, 95% CI given; for activity factor IC50(1)/IC50(3a–4d), A549: vs corresponding amine (R)-1 or (S)-1, 72 h
Source text: (§3) To assess the impact of conjugating half-sandwich complexes with amines 1 via an imine-pyridine ligand on biological activity, we examined the antiproliferative potential of (R)- and (S)-1 and organometallic conjugates 3a–d and 4a–d in selected human cancer cell lines: alveolar basal epithelial cell adenocarcinoma (A549), colorectal adenocarcinomas (Colo205 and SW620), colorectal carcinoma (HCT116), hepatocellular carcinoma (HepG2), and breast adenocarcinoma (MCF7). The choice of cell lines was dictated by results of previously published clinical trials on ispinesib.[49],[50]
(§4) Cell lines used in this study were purchased from the American Type Culture Collection via LGC Standards. Human normal lung fibroblasts (MRC-5), alveolar basal epithelial cell adenocarcinoma (A549), colorectal adenocarcinoma (Colo205), hepatocellular carcinoma (HepG2), breast adenocarcinoma (MCF7), and colorectal adenocarcinoma (SW620) and its MDR variants[55] were cultured in standard conditions (37 °C, 5% CO2, 100% relative humidity) in high glucose DMEM medium supplemented with GlutaMax, HEPES (ThermoFisher Scientific) and 10% fetal bovine serum (EURx, Poland). All cell lines were tested for Mycoplasma contamination using a MycoProbe mycoplasma detection kit (R&D System).
(§5) For this purpose, neutral red uptake assay was performed. 10^4 of cells were seeded per well of a 96-well plate and left overnight to allow cells to attach to the surface. Then, the cells were exposed to a desired concentration of tested compounds. Stock solutions were prepared in DMSO and were used immediately after preparation. The final concentration of DMSO was constant and nontoxic (0.1% v/v). After 70 h of culture, neutral red was added to the final concentration of 1 mM. After 2 h of incubation with the dye, the medium was aspirated and cells were washed with ice-cold PBS. The dye was released using 100 μL of the solubilizer (1% acetic acid in 50% ethanol) on an orbital shaker (10 min). The absorbance at 540 nm was measured using an EnVision multilabel plate reader (PerkinElmer). […] The IC90 and IC50 parameters were calculated using GraphPad Prism v9 software using the five-parameter nonlinear logistic regression model.

SW620C = assay: Neutral red uptake antiproliferative assay, MDR line SW620C; type: cell-based, human; conditions: for IC50: exposure time 72 h, n = 3, ABCG2-overexpressing MDR line; for activity factor IC50(1)/IC50(3a–4d), SW620C: vs corresponding amine (R)-1 or (S)-1, 72 h
Source text: as §1, §2

SW620M = assay: Neutral red uptake antiproliferative assay, MDR line SW620M; type: cell-based, human; conditions: for IC50: exposure time 72 h, n = 3, ABCC1-overexpressing MDR line; for activity factor IC50(1)/IC50(3a–4d), SW620M: vs corresponding amine (R)-1 or (S)-1, 72 h
Source text: as §1, §2

SW620E = assay: Neutral red uptake antiproliferative assay, MDR line SW620E; type: cell-based, human; conditions: for IC50: exposure time 72 h, n = 3, ABCC1- and ABCB1-overexpressing MDR line; for activity factor IC50(1)/IC50(3a–4d), SW620E: vs corresponding amine (R)-1 or (S)-1, 72 h
Source text: as §1, §2

[1] = tested on: human cancer cell lines (A549, Colo205, HCT116, HepG2, MCF7, SW620); assay: Neutral red uptake antiproliferative assay, panel of human cancer cell lines; type: cell-based; conditions: cell line not stated
Source text: as §3
as §5, with “The dye was released using 100 μL of the solubilizer (1% acetic acid in 50% ethanol) on an orbital shaker (10 min).” left out

SW620V = assay: Neutral red uptake antiproliferative assay, MDR line SW620V; type: cell-based, human; conditions: for IC50: exposure time 72 h, n = 3, ABCB1-overexpressing MDR line; for activity factor IC50(1)/IC50(3a–4d), SW620V: vs corresponding amine (R)-1 or (S)-1, 72 h
Source text: as §1, §2

SW620 = assay: Neutral red uptake antiproliferative assay, SW620; type: cell-based, human; conditions: for IC50: exposure time 72 h, n = 3, 95% CI given; for activity factor IC50(1)/IC50(3a–4d), SW620: vs corresponding amine (R)-1 or (S)-1, 72 h
Source text: as §3, §4, §5

SW620 cells [2] = assay: Cell cycle distribution by flow cytometry, SW620; type: cell-based, human; conditions: concentration equal to IC75 of (S)-1 / (R)-1, mean ± SEM, n = 3; for Cell cycle fraction G1, 24 h / Cell cycle fraction G2/M, 24 h / Cell cycle fraction S, 24 h: SW620, 24 h; for Cell cycle fraction G1, 48 h / Cell cycle fraction G2/M, 48 h / Cell cycle fraction S, 48 h: SW620, 48 h
Procedure: Ispinesib leads to the formation of monopolar mitotic spindles and a blockade of chromosome segregation in cancer cells. Using flow cytometry, we assessed the cell cycle distribution in the SW620 and SW620E cells exposed to the studied compounds for 24 and 48 h. […] Both complexes, 3c and 3d, decrease the percentage of cells in the G1/G0 phase and increase the percentage in the S and G2/M phases. […] Furthermore, prolonged exposure to the compounds increases the percentage of cells in the G2/M phase, with the most intensive effect observed for 3c and 3d.
SW620 and SW620E cells lines (vulnerable and resistant variants, respectively) were seeded in 6-well plates at a density of 10^5 cells per well. […] After 24 h, the cells were trypsinized and fixed with ice-cold 70% v/v ethanol. The cells were stained with 75 μM propidium iodide with 50 Kunitz units of RNase A in PBS for 30 min at 37 °C. All samples were analyzed using a LSRII flow cytometer (Becton Dickinson) at a PE channel ([…]). Cell cycle phase distribution was determined using a built-in cell cycle module (Watson pragmatic algorithm) by FlowJo 7.6.1 software.

HCT116 = assay: cells; conditions: for IC50: read-out: IC50 HCT116, exposure time 72 h, n = 3, 95% CI given; for activity factor IC50(1)/IC50(3a–4d), HCT116: vs corresponding amine (R)-1 or (S)-1, 72 h
Source text: as §3, §5

HepG2 = assay: cells; conditions: for IC50: read-out: IC50 HepG2, exposure time 72 h, n = 3, 95% CI given; for activity factor IC50(1)/IC50(3a–4d), HepG2: vs corresponding amine (R)-1 or (S)-1, 72 h
Source text: as §3, §4, §5

MCF7 = assay: cells; conditions: for IC50: read-out: IC50 MCF7, exposure time 72 h, n = 3, 95% CI given; for activity factor IC50(1)/IC50(3a–4d), MCF7: vs corresponding amine (R)-1 or (S)-1, 72 h
Source text: as §3, §4, §5

Colo205 = assay: cells; conditions: for IC50: read-out: IC50 Colo205, exposure time 72 h, n = 3, 95% CI given; for activity factor IC50(1)/IC50(3a–4d), Colo205: vs corresponding amine (R)-1 or (S)-1, 72 h
Source text: as §3, §4, §5

SW620D = assay: Neutral red uptake antiproliferative assay, MDR line SW620D; type: cell-based, human; conditions: for IC50: exposure time 72 h, n = 3, ABCB1-overexpressing MDR line; for activity factor IC50(1)/IC50(3a–4d), SW620D: vs corresponding amine (R)-1 or (S)-1, 72 h
Source text: as §1, §2

SW620 cells [3] = assay: ROS generation, dihydrorhodamine 123 oxidation assay; type: cell-based, human; conditions: SW620, 1 μM compound, 4 h, DHR123 with 10 μM verapamil; vs control or (R)- and (S)-1
Source text: Metal complexes often induce reactive oxygen species (ROS) generation in cells,[51] which may increase their cytotoxic activity compared to purely organic molecules. To study the impact of the synthesized compounds on ROS production, we have measured the ROS generation in SW620 cells by the dihydrorhodamine 123 (DHR123) oxidation assay (Figure 9). However, there is no correlation between the antiproliferative potential and the ability of a compound to generate ROS.
Dihydrorhodamine 123 oxidation was used as an indicator of intracellular ROS production. For this purpose, SW620 cells were seeded in 6-well plates at a density of 10^5 cells per well. The cells were left overnight (time needed for them to attach to the surface). Then, 1 μM tested compounds were added along with 1 μM DHR123. Additionally, since DHR123 is a substrate of ABCB1 (which may interfere in this assay), 10 μM verapamil, an inhibitor of this protein, was added. The cells were cultured for an additional 4 h at 37 °C, and then the cells were harvested by trypsinization, resuspended in a complete medium, and analyzed using a LSRII flow cytometer (Becton Dickinson) in a FITC channel (530/30 nm). The results are presented as a percentage of control (median fluorescence in the presence of DMSO).

[4] = compared with the amine of opposite configuration, (R)-1

| IC50 (SW620Mito) [nM] | activity factor IC50(1)/IC50(3a–4d), SW620Mito (SW620Mito) | IC50 (A549) [nM] | activity factor IC50(1)/IC50(3a–4d), A549 (A549) | IC50 (SW620C) [nM] | activity factor IC50(1)/IC50(3a–4d), SW620C (SW620C) | IC50 (SW620M) [nM] | activity factor IC50(1)/IC50(3a–4d), SW620M (SW620M) | IC50 (SW620E) [µM] | activity factor IC50(1)/IC50(3a–4d), SW620E (SW620E) | IC50 (SW620V) [nM] | activity factor IC50(1)/IC50(3a–4d), SW620V (SW620V) | IC50 (SW620) [nM] | activity factor IC50(1)/IC50(3a–4d), SW620 (SW620) | SMILES | Cell cycle fraction G1, 24 h (SW620 cells [2]) [%] | Cell cycle fraction G2/M, 24 h (SW620 cells [2]) [%] | Cell cycle fraction S, 24 h (SW620 cells [2]) [%] | Cell cycle fraction G1, 48 h (SW620 cells [2]) [%] | Cell cycle fraction G2/M, 48 h (SW620 cells [2]) [%] | Cell cycle fraction S, 48 h (SW620 cells [2]) [%] | further results |
| --- | --- | --- | --- | --- | --- | --- | --- | --- | --- | --- | --- | --- | --- | --- | --- | --- | --- | --- | --- | --- | --- |
| 365 | (10.71) | 764 | (9.23) | 343 | (9.71) | 387 | (8.94) | 0.663 | (6.11) | 411 | (8.37) | 139 | (20.65) | CC(C)[C@H](N=Cc1ccccn1)c1nc2cc(Cl)ccc2c(=O)n1Cc1ccccc1.Cc1c(C)c(C)[c-](C)c1C.F[P-](F)(F)(F)(F)F.[Cl-].[Ir+3] [Compound 4d, [(Cp*)Ir((S)-2)Cl]PF6] | 51.7 ± 1.2 | 28.9 ± 0.4 | 14.3 ± 0.2 | 44.1 ± 0.5 | 40.6 ± 1.3 | 13.7 ± 0.4 | higher cytotoxicity than (R)-1, SW620C (SW620C; [4]): 2.1 fold; higher cytotoxicity compared to (R)-1 [1]: 1.6 fold; higher cytotoxicity compared to (S)-1 [1]: 2.6 fold; IC50 (HCT116): 222 nM; activity factor IC50(1)/IC50(3a–4d), HCT116 (HCT116): (36.31); IC50 (HepG2): 218 nM; activity factor IC50(1)/IC50(3a–4d), HepG2 (HepG2): (11.01); IC50 (MCF7): 216 nM; activity factor IC50(1)/IC50(3a–4d), MCF7 (MCF7): (18.10); IC50 (Colo205): 216 nM; activity factor IC50(1)/IC50(3a–4d), Colo205 (Colo205): (28.1); higher cytotoxicity than (R)-1, SW620D (SW620D; [4]): 2.6 fold; IC50 (SW620D): 0.425 µM; activity factor IC50(1)/IC50(3a–4d), SW620D (SW620D): (9.76) |
| 3680 | (1.06) | 3250 | (2.17) | 4360 | (0.764) | 3240 | (1.07) | 5.46 | (0.741) | 5010 | (0.687) | 2910 | (0.986) | CC(C)[C@H](N=Cc1ccccn1)c1nc2cc(Cl)ccc2c(=O)n1Cc1ccccc1.Cc1ccc(C(C)C)cc1.F[P-](F)(F)(F)(F)F.[Cl-].[Ru+2] [Compound 4a, [(cym)Ru((S)-2)Cl]PF6] | 52.8 ± 1.2 | 33.3 ± 1.0 | 13.5 ± 0.4 | 46.8 ± 0.7 | 39.1 ± 0.3 | 13.5 ± 0.8 | ROS generation (in words) (SW620 cells [3]): increase the level of ROS; IC50 (HCT116): 3760 nM; activity factor IC50(1)/IC50(3a–4d), HCT116 (HCT116): (2.14); IC50 (HepG2): 1890 nM; activity factor IC50(1)/IC50(3a–4d), HepG2 (HepG2): (1.27); increased cytotoxicity vs corresponding amine 1, MCF7 (MCF7): approximately 6 fold; IC50 (MCF7): 634 nM; activity factor IC50(1)/IC50(3a–4d), MCF7 (MCF7): (6.17); increased cytotoxicity vs corresponding amine 1, Colo205 (Colo205): approximately 6 fold; IC50 (Colo205): 939 nM; activity factor IC50(1)/IC50(3a–4d), Colo205 (Colo205): (6.46); IC50 (SW620D): 6.01 µM; activity factor IC50(1)/IC50(3a–4d), SW620D (SW620D): (0.690) |
